# Structures can show the parent of a compound that is named as a salt.
# Tests used:
# [1] = biological target: T1, recombinant human α1D receptor (Homo sapiens, UniProt P25100); assay: Adrenergic α1D selectivity assay, [3H]-prazosin binding to membranes; conditions: inhibition of [3H]-prazosin binding, HEK cell membranes, read-out: α1 bind pIC50 (converted)
# T1 construct: expressed in transfected cells; host or cells: human embryonic kidney 293 cells (HEK93 [sic]), membranes
# T1 sequence (P25100 1-572): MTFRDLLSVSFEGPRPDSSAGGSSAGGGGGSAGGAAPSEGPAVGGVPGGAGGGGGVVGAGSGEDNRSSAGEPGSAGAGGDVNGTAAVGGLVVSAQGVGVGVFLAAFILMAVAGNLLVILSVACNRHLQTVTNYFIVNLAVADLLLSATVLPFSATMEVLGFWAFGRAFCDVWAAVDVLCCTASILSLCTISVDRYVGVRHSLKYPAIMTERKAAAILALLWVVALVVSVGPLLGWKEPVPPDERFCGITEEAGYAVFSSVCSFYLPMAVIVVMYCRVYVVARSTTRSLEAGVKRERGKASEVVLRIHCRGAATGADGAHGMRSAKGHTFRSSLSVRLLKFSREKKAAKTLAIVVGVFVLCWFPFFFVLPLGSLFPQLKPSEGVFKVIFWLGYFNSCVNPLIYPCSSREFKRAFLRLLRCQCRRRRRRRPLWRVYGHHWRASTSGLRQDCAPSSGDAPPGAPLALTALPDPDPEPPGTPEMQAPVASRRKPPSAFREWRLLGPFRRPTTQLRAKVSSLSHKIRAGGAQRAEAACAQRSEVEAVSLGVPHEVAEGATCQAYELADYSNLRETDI
# How it was run: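 Competition binding on HEK293 membranes with recombinant human α1D receptor, 0.3 nM [3H]-prazosin, 50 mM HEPES/1 mM EDTA pH 7.4, 2 h at room temperature; filtration and scintillation counting. Non-specific binding defined with 10 μM BMY7378. pIC50 from four-parameter logistic fit of specific-binding inhibition.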
# [2] = biological target: T2, recombinant human adrenergic beta 1 receptors (Homo sapiens, UniProt P08588); assay: Adrenergic β1 selectivity assay, [125I]-Iodocyanopindolol binding to membranes; conditions: inhibition of [125I]-Iodocyanopindolol binding, read-out: β1 bind pIC50 (converted)
# T2 construct: purchased Euroscreen
# T2 sequence (P08588 whole entry): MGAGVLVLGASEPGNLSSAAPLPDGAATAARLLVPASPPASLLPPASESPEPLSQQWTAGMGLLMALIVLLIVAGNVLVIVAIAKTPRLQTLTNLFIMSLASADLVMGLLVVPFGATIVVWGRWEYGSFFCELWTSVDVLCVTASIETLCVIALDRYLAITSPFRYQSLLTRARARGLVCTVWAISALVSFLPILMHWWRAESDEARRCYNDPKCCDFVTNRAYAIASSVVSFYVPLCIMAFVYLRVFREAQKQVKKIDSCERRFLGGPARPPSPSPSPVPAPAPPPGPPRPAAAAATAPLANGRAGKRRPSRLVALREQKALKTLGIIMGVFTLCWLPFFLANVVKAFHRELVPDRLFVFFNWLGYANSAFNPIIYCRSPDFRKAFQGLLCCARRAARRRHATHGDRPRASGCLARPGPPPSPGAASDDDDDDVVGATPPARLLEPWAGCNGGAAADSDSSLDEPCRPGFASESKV
# How it was run: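 Recombinant human β1 membranes in HEPES buffer pH 7.4 with 120 mM NaCl were incubated 2 hours at room temperature with 0.036 nM [^125I]-Iodocyanopindolol. Nonspecific binding defined by 10 μM propranolol; bound radioactivity counted after filtration. pIC50 from four-parameter logistic fit.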
IC50 [1],IC50 [2],SMILES
0.251 µM,> 7.94 µM,"O=C1COc2c(CCNCCN(C(=O)CCNCCc3cc(F)cc(Cl)c3)C3CCCCC3)ccc(O)c2N1 [Example 41, 3-(3-Chloro-5-fluorophenethylamino)-N-cyclohexyl-N-(2-(2-(5-hydroxy-3-oxo-3,4-dihydro-2H-benzo[b][1,4]oxazin-8-yl)ethylamino)ethyl)propanamide (trifluoroacetate)]"
0.1 µM,2 µM,"CC[C@@H](C)N(CCNCCc1ccc(O)c2c1OCC(=O)N2)C(=O)CCNCCc1ccc(Cl)c(Cl)c1 [Example 58, (R)—N-sec-Butyl-3-(3,4-dichlorophenethylamino)-N-(2-(2-(5-hydroxy-3-oxo-3,4-dihydro-2H-benzo[b][1,4]oxazin-8-yl)ethylamino)ethyl)propanamide dihydrochloride]"
0.126 µM,0.631 µM,"O=C1COc2c(CCNCCN(C(=O)CCNCCc3ccccc3)C3CCCCC3)ccc(O)c2N1 [Example 23, N-Cyclohexyl-N-(2-(2-(5-hydroxy-3-oxo-3,4-dihydro-2H-benzo[b][1,4]oxazin-8-yl)ethylamino)ethyl)-3-(phenethylamino)propanamide bis(trifluoroacetate)]"
0.794 µM,3.16 µM,"O=C1COc2c(CCNCCN(C(=O)CCOCCc3cccc(Cl)c3)C3CCCCC3)ccc(O)c2N1 [Example 77, 3-(3-Chlorophenethoxy)-N-cyclohexyl-N-(2-(2-(5-hydroxy-3-oxo-3,4-dihydro-2H-benzo[b][1,4]oxazin-8-yl)ethylamino)ethyl)propanamide trifluoroacetate]"
